In patent US8362235B2, “Carboxamide compounds and methods for using the same” (Rigel Pharmaceuticals, Inc., priority 2009, dated 2013):

The molecules below were run against AMPK (assay: AMPK activation, enzyme-linked immunosorbent assay). Conditions: ELISA.
Method: Compounds 1-8 were assayed for their ability to activate AMPK using an enzyme-linked immunosorbent assay.

EC50 [nM] | SMILES
< 500 | N#Cc1ccc(CN2CCC(NC(=O)c3ccc(C(=O)N4CCN(Cc5ccc(C(F)(F)F)cc5)CC4)cn3)CC2)cc1 [Compound 3, N-(1-(4-cyanobenzyl)piperidin-4-yl)-5-(4-(4-(trifluoromethyl)benzyl)piperazine-1-carbonyl)picolinamide]
500 to 1000 | N#Cc1ccc(CN2CC[C@H](NC(=O)c3ccc(C(=O)N4CCN(c5ccc(Cl)cc5)CC4)cn3)C2)cc1 [Compound 6, (S)-5-(4-(4-chlorophenyl)piperazine-1-carbonyl)-N-(1-(4-cyanobenzyl)pyrrolidin-3-yl)picolinamide]
1000 to 5000 | O=C(NC1CCN(Cc2ccc(C(F)(F)F)cc2)C1)c1ccc(C(=O)N2CCN(c3ccc(Cl)cc3)CC2)cn1 (stereo not shown) [Compound 8, 5-(4-(4-chlorophenyl)piperazine-1-carbonyl)-N-(1-(4-(trifluoromethyl)benzyl)pyrrolidin-3-yl)picolinamide]
< 500 | N#Cc1ccc(CN2CCC(NC(=O)c3ccc(C(=O)N4CCN(Cc5ccc(F)cc5)CC4)cn3)CC2)cc1 [Compound 2, N-(1-(4-cyanobenzyl)piperidin-4-yl)-5-(4-(4-fluorobenzyl)piperazine-1-carbonyl)picolinamide]
